{"source": "patent US20230233576A1", "about": "“ECLITASERTIB FOR USE IN TREATING CONDITIONS INVOLVING SYSTEMIC HYPERINFLAMMATORY RESPONSE” (priority 2020, published 2023)", "test_system": "laboratory markers of severe COVID-19 (D-dimer, leukocytes, lymphocytes, neutrophil to lymphocyte ratio, ferritin, LDH)", "assay": "Phase 1b severe COVID-19 study: laboratory markers of severe COVID-19", "format": "in vivo, human", "conditions": "for D-Dimer relative change from baseline, RIPK1 Inhibitor vs placebo, point estimate / Ferritin relative change from baseline, RIPK1 Inhibitor vs placebo, point estimate / Lactate Dehydrogenase relative change from baseline, RIPK1 Inhibitor vs placebo, point estimate / Leukocytes relative change from baseline, RIPK1 Inhibitor vs placebo, point estimate / Lymphocytes relative change from baseline, RIPK1 Inhibitor vs placebo, point estimate / Neutrophils/Lymphocytes (RATIO) relative change from baseline, RIPK1 Inhibitor vs placebo, point estimate: MMRM; for D-Dimer relative change from baseline, RIPK1 Inhibitor vs placebo, point estimate / Ferritin relative change from baseline, RIPK1 Inhibitor vs placebo, point estimate / Lactate Dehydrogenase relative change from baseline, RIPK1 Inhibitor vs placebo, point estimate / Leukocytes relative change from baseline, RIPK1 Inhibitor vs placebo, point estimate / Lymphocytes relative change from baseline, RIPK1 Inhibitor vs placebo, point estimate / Neutrophils/Lymphocytes (RATIO) relative change from baseline, RIPK1 Inhibitor vs placebo, point estimate / D-Dimer: point estimate of the relative change from baseline (geometric mean) / D-Dimer: point estimate of the relative change from baseline displayed as percent change / Ferritin: point estimate of the relative change from baseline (geometric mean) / Ferritin: point estimate of the relative change from baseline displayed as percent change / Lactate Dehydrogenase: point estimate of the relative change from baseline (geometric mean) / Lactate Dehydrogenase: point estimate of the relative change from baseline displayed as percent change / Leukocytes: point estimate of the relative change from baseline (geometric mean) / Leukocytes: point estimate of the relative change from baseline displayed as percent change / Lymphocytes: point estimate of the relative change from baseline (geometric mean) / Lymphocytes: point estimate of the relative change from baseline displayed as percent change / Neutrophils/Lymphocytes (RATIO): point estimate of the relative change from baseline (geometric mean) / Neutrophils/Lymphocytes (RATIO): point estimate of the relative change from baseline displayed as percent change: LOCF, Efficacy population", "excerpt": "For clinical assessment, the variables associated with endpoints were: • main inflammatory marker CRP • Oxygenation saturation and oxygen delivery (e.g. SpO2, SpO2/FiO2), Laboratory markers of severe COVID-19 including D-dimer, lactate dehydrogenase (LDH), ferritin and hematology laboratory (white blood cell count, differential blood lymphocytes, neutrophil to lymphocyte ratio) • Clinical status of participant (7-point ordinal scale) • Thrombolytic and vasopressor treatments\nOther secondary clinical assessment endpoints included: • Number of Days without need for oxygen support and alive (oxygen saturation≥92% breathing room air) up to Day 28 • Numbers of Ventilator-free days and alive up to Day 28 • Change from baseline in markers of inflammation (White blood cell count, differential blood lymphocytes, neutrophil to lymphocyte ratio, IL-6) and D-Dimer at Day 7 and EOT • Incidence of Deaths up to Day 28 • Percentage of participants receiving thrombolytic treatment up to Day 28 • Percentage of participants receiving vasopressor treatment up to Day 28 • Numbers of Respiratory Failure-Free Days (RFFD) and alive up to Day 28\nExploratory clinical assessments endpoints included: • Change from baseline in ferritin and LDH at Day 7 and EOT • Proportion of participants per category of the 7-point clinical scale at EOT • Time to improvement by 2 points in category of 7-point clinical scale • Quantitative SARS-COV-2 viral load in blood at baseline and on Day 3, 5, 7 and EOT\nThe relative changes from baseline in laboratory markers of severe COVID-19 were analyzed for the two treatment groups and for the treatment comparison of RIPK1 Inhibitor versus placebo, at Day 7 and EOT (Table 22, Table 23, Table 24). See also FIGS. 14, 15, 16, 17, 18, and 19.", "data": [{"smiles": "CN1C(=O)[C@@H](NC(=O)c2nnc(Cc3ccccc3)[nH]2)COc2cccnc21", "note": "[RIPK1 Inhibitor, (S)-5-benzyl-N-(5-methyl-4-oxo-2,3,4,5-tetrahydropyrido[3,2-b][1,4]oxazepin-3-yl)-4H-1,2,4-triazole-3-carboxamide]", "values": [{"measurement": "D-Dimer relative change from baseline, RIPK1 Inhibitor vs placebo, point estimate", "setting": "600 mg, Day 7", "result": 0.88}, {"measurement": "Ferritin relative change from baseline, RIPK1 Inhibitor vs placebo, point estimate", "setting": "600 mg, Day 7", "result": 0.96}, {"measurement": "Lactate Dehydrogenase relative change from baseline, RIPK1 Inhibitor vs placebo, point estimate", "setting": "600 mg, Day 7", "result": 0.80}, {"measurement": "Leukocytes relative change from baseline, RIPK1 Inhibitor vs placebo, point estimate", "setting": "600 mg, Day 7", "result": 0.87}, {"measurement": "Lymphocytes relative change from baseline, RIPK1 Inhibitor vs placebo, point estimate", "setting": "600 mg, Day 7", "result": 1.02}, {"measurement": "Neutrophils/Lymphocytes (RATIO) relative change from baseline, RIPK1 Inhibitor vs placebo, point estimate", "setting": "600 mg, Day 7", "result": 0.65}, {"measurement": "difference with RIPK1 Inhibitor versus placebo for ferritin", "setting": "600 mg, Day 7 and EOT", "result": "No differences"}, {"measurement": "D-Dimer relative change from baseline, RIPK1 Inhibitor vs placebo, point estimate", "setting": "600 mg, EOT", "result": 1.07}, {"measurement": "Ferritin relative change from baseline, RIPK1 Inhibitor vs placebo, point estimate", "setting": "600 mg, EOT", "result": 0.98}, {"measurement": "Lactate Dehydrogenase relative change from baseline, RIPK1 Inhibitor vs placebo, point estimate", "setting": "600 mg, EOT", "result": 0.85}, {"measurement": "Leukocytes relative change from baseline, RIPK1 Inhibitor vs placebo, point estimate", "setting": "600 mg, EOT", "result": 1.03}, {"measurement": "Lymphocytes relative change from baseline, RIPK1 Inhibitor vs placebo, point estimate", "setting": "600 mg, EOT", "result": 1.03}, {"measurement": "Neutrophils/Lymphocytes (RATIO) relative change from baseline, RIPK1 Inhibitor vs placebo, point estimate", "setting": "600 mg, EOT", "result": 0.67}, {"measurement": "D-Dimer: point estimate of the relative change from baseline (geometric mean)", "setting": "Day 03", "result": 1.00}, {"measurement": "D-Dimer: point estimate of the relative change from baseline displayed as percent change", "setting": "Day 03", "result": "−0.31", "unit": "%"}, {"measurement": "Ferritin: point estimate of the relative change from baseline (geometric mean)", "setting": "Day 03", "result": 3.43}, {"measurement": "Ferritin: point estimate of the relative change from baseline displayed as percent change", "setting": "Day 03", "result": 242.68, "unit": "%"}, {"measurement": "Lactate Dehydrogenase: point estimate of the relative change from baseline (geometric mean)", "setting": "Day 03", "result": 2.42}, {"measurement": "Lactate Dehydrogenase: point estimate of the relative change from baseline displayed as percent change", "setting": "Day 03", "result": 141.68, "unit": "%"}, {"measurement": "Leukocytes: point estimate of the relative change from baseline (geometric mean)", "setting": "Day 03", "result": 6.10}, {"measurement": "Leukocytes: point estimate of the relative change from baseline displayed as percent change", "setting": "Day 03", "result": 509.93, "unit": "%"}, {"measurement": "Lymphocytes: point estimate of the relative change from baseline (geometric mean)", "setting": "Day 03", "result": 1.35}, {"measurement": "Lymphocytes: point estimate of the relative change from baseline displayed as percent change", "setting": "Day 03", "result": 34.70, "unit": "%"}, {"measurement": "Neutrophils/Lymphocytes (RATIO): point estimate of the relative change from baseline (geometric mean)", "setting": "Day 03", "result": 2.01}, {"measurement": "Neutrophils/Lymphocytes (RATIO): point estimate of the relative change from baseline displayed as percent change", "setting": "Day 03", "result": 100.80, "unit": "%"}, {"measurement": "D-Dimer: point estimate of the relative change from baseline (geometric mean)", "setting": "Day 05", "result": 1.04}, {"measurement": "D-Dimer: point estimate of the relative change from baseline displayed as percent change", "setting": "Day 05", "result": 4.10, "unit": "%"}, {"measurement": "Ferritin: point estimate of the relative change from baseline (geometric mean)", "setting": "Day 05", "result": 2.91}, {"measurement": "Ferritin: point estimate of the relative change from baseline displayed as percent change", "setting": "Day 05", "result": 191.34, "unit": "%"}, {"measurement": "Lactate Dehydrogenase: point estimate of the relative change from baseline (geometric mean)", "setting": "Day 05", "result": 2.23}, {"measurement": "Lactate Dehydrogenase: point estimate of the relative change from baseline displayed as percent change", "setting": "Day 05", "result": 122.59, "unit": "%"}, {"measurement": "Leukocytes: point estimate of the relative change from baseline (geometric mean)", "setting": "Day 05", "result": 6.14}, {"measurement": "Leukocytes: point estimate of the relative change from baseline displayed as percent change", "setting": "Day 05", "result": 513.77, "unit": "%"}, {"measurement": "Lymphocytes: point estimate of the relative change from baseline (geometric mean)", "setting": "Day 05", "result": 1.43}, {"measurement": "Lymphocytes: point estimate of the relative change from baseline displayed as percent change", "setting": "Day 05", "result": 42.51, "unit": "%"}, {"measurement": "Neutrophils/Lymphocytes (RATIO): point estimate of the relative change from baseline (geometric mean)", "setting": "Day 05", "result": 1.89}, {"measurement": "Neutrophils/Lymphocytes (RATIO): point estimate of the relative change from baseline displayed as percent change", "setting": "Day 05", "result": 89.49, "unit": "%"}, {"measurement": "D-Dimer: point estimate of the relative change from baseline (geometric mean)", "setting": "Day 07", "result": 0.96}, {"measurement": "D-Dimer: point estimate of the relative change from baseline displayed as percent change", "setting": "Day 07", "result": "−3.52", "unit": "%"}, {"measurement": "Ferritin: point estimate of the relative change from baseline (geometric mean)", "setting": "Day 07", "result": 2.80}, {"measurement": "Ferritin: point estimate of the relative change from baseline displayed as percent change", "setting": "Day 07", "result": 179.61, "unit": "%"}, {"measurement": "Lactate Dehydrogenase: point estimate of the relative change from baseline (geometric mean)", "setting": "Day 07", "result": 2.10}, {"measurement": "Lactate Dehydrogenase: point estimate of the relative change from baseline displayed as percent change", "setting": "Day 07", "result": 110.26, "unit": "%"}, {"measurement": "Leukocytes: point estimate of the relative change from baseline (geometric mean)", "setting": "Day 07", "result": 6.15}, {"measurement": "Leukocytes: point estimate of the relative change from baseline displayed as percent change", "setting": "Day 07", "result": 514.60, "unit": "%"}, {"measurement": "Lymphocytes: point estimate of the relative change from baseline (geometric mean)", "setting": "Day 07", "result": 1.52}, {"measurement": "Lymphocytes: point estimate of the relative change from baseline displayed as percent change", "setting": "Day 07", "result": 51.69, "unit": "%"}, {"measurement": "Neutrophils/Lymphocytes (RATIO): point estimate of the relative change from baseline (geometric mean)", "setting": "Day 07", "result": 1.74}, {"measurement": "Neutrophils/Lymphocytes (RATIO): point estimate of the relative change from baseline displayed as percent change", "setting": "Day 07", "result": 74.47, "unit": "%"}, {"measurement": "D-Dimer: point estimate of the relative change from baseline (geometric mean)", "setting": "Day 15", "result": 0.96}, {"measurement": "D-Dimer: point estimate of the relative change from baseline displayed as percent change", "setting": "Day 15", "result": "−3.71", "unit": "%"}, {"measurement": "Ferritin: point estimate of the relative change from baseline (geometric mean)", "setting": "Day 15", "result": 2.66}, {"measurement": "Ferritin: point estimate of the relative change from baseline displayed as percent change", "setting": "Day 15", "result": 166.34, "unit": "%"}, {"measurement": "Lactate Dehydrogenase: point estimate of the relative change from baseline (geometric mean)", "setting": "Day 15", "result": 2.05}, {"measurement": "Lactate Dehydrogenase: point estimate of the relative change from baseline displayed as percent change", "setting": "Day 15", "result": 104.58, "unit": "%"}, {"measurement": "Leukocytes: point estimate of the relative change from baseline (geometric mean)", "setting": "Day 15", "result": 6.60}, {"measurement": "Leukocytes: point estimate of the relative change from baseline displayed as percent change", "setting": "Day 15", "result": 560.21, "unit": "%"}, {"measurement": "Lymphocytes: point estimate of the relative change from baseline (geometric mean)", "setting": "Day 15", "result": 1.63}, {"measurement": "Lymphocytes: point estimate of the relative change from baseline displayed as percent change", "setting": "Day 15", "result": 63.48, "unit": "%"}, {"measurement": "Neutrophils/Lymphocytes (RATIO): point estimate of the relative change from baseline (geometric mean)", "setting": "Day 15", "result": 1.66}, {"measurement": "Neutrophils/Lymphocytes (RATIO): point estimate of the relative change from baseline displayed as percent change", "setting": "Day 15", "result": 65.55, "unit": "%"}]}]}
